# How the values were obtained:
# Format in all cases: in vivo
# [1] = system: barnyardgrass (ECHCG; Echinochloa crus-galli); assay: Test G preemergence, mixtures of Cpd. No. 20 with (b15C1)
# Description: (§1) This test evaluated the effect of mixtures of Cpd. No. 20 with (b15C1) on several plant species. Seeds of plant species selected from corn (ZEAMD; Zea mays, cv. ‘Pioneer 1184’), soybean (GLXMA; Glycine max, cv. Pioneer 35T58), giant foxtail (SETFA; Setaria faberi), barnyardgrass (ECHCG; Echinochloa crus-galli), large crabgrass (DIGSA; Digitaria sanguinalis), palmer amaranth (AMAPA; Amaranthus palmeri), common waterhemp (AMATU; Amaranthus rudis), and common ragweed (AMBEL; Ambrosia artemisiifolia) were planted in pots containing Tama Silt Loam soil and treated preemergence with a directed soil spray using test chemicals formulated in a non-phytotoxic solvent mixture which included a surfactant.
# (§2) Treated plants and untreated controls were maintained in a greenhouse for approximately 21 d, after which time all treated plants were compared to untreated controls and visually evaluated for injury. Plant response ratings, summarized in Table G, are based on a 0 to 100 scale where 0 is no effect and 100 is complete control. A dash (-) response means no test result. Test results are presented as a mean of 4 reps.
# [2] = system: common ragweed (AMBEL; Ambrosia artemisiifolia); assay: as above
# Description: as §1, §2
# [3] = system: common waterhemp (AMATU; Amaranthus rudis); assay: as above
# Description: as §1, §2
# [4] = system: corn (ZEAMD; Zea mays, cv. ‘Pioneer 1184’); assay: as above
# Description: as §1, §2
# [5] = system: giant foxtail (SETFA; Setaria faberi); assay: as above
# Description: as §1, §2
# [6] = system: large crabgrass (DIGSA; Digitaria sanguinalis); assay: as above
# Description: as §1, §2
# [7] = system: soybean (GLXMA; Glycine max, cv. Pioneer 35T58); assay: as above
# Description: as §1, §2
# [8] = system: corn (ZEAMD; Zea mays, cv. ‘Pioneer 1184’); assay: Test M postemergence, mixtures of Cpd. No. 20 with isoxadifen-ethyl, cloquintocet-mexyl or Mefenpyr-diethyl; details: approx. 14 d
# Description: (§3) This test evaluated the effect of mixtures of Cpd. No. 20 with isoxadifen-ethyl, or cloquintocet-mexyl, or Mefenpyr-diethyl on several plant species. Seeds of plant species selected from corn (ZEAMD; Zea mays, cv. ‘Pioneer 1184’), soybean (GLXMA; Glycine max, cv. Pioneer 35T58), winter wheat (TRZAW; Triticum aetivum, cv. Arezzo), winter barley (HORVW; Hordeum vulgare, cv. Boone), rice (ORYSS; Oryza sativa, cv. M202), and giant foxtail (SETFA; Setaria faberi) were planted in pots containing Redi-Earth® planting medium (Scotts Company, 14111 Scottslawn Road, Marysville, Ohio 43041) comprising spaghnum peat moss, vermiculite, wetting agent and starter nutrients and treated postemergence using test chemicals formulated in a non-phytotoxic solvent mixture which included a surfactant. Plants ranged in height from 7 to 10 cm and were in the one- to two-leaf stage for the postemergence treatment. Treated plants and untreated controls were maintained in a greenhouse for approximately 14 d, after which time all treated plants were compared to untreated controls and visually evaluated for injury. Plant response ratings, summarized in Tables M1 to M3, are based on a 0 to 100 scale where 0 is no effect and 100 is complete control. A dash (-) response means no test result. Test results are presented as a mean of 3 reps.
# [9] = system: giant foxtail (SETFA; Setaria faberi); assay: as above; details: approx. 14 d
# Description: as §3
# [10] = system: rice (ORYSS; Oryza sativa, cv. M202); assay: as above; details: approx. 14 d
# Description: as §3
# [11] = system: soybean (GLXMA; Glycine max, cv. Pioneer 35T58); assay: as above; details: approx. 14 d
# Description: as §3
# [12] = system: winter barley (HORVW; Hordeum vulgare, cv. Boone); assay: as above; details: approx. 14 d
# Description: as §3
# [13] = system: winter wheat (TRZAW; Triticum aetivum, cv. Arezzo); assay: as above; details: approx. 14 d
# Description: as §3
# [14] = Cpd. No. 20 alone 125 g a.i./ha
# [15] = Cpd. No. 20 alone 250 g a.i./ha
# [16] = Cpd. No. 20 alone 375 g a.i./ha
compound,measurement,setting,value
"Cc1ccc2ccc(C)c(-c3c(O)c(Cl)nn(C)c3=O)c2c1 [Cpd. No. 20, 6-chloro-4-(2,7-dimethyl-1-naphthalenyl)-5-hydroxy-2-methyl-3(2H)-pyridazinone]",Plant response rating (0 to 100 scale),[1]; Cpd. No. 20 16 g a.i./ha alone,21
same,Plant response rating (0 to 100 scale),[1]; Cpd. No. 20 31 g a.i./ha alone,51
same,Plant response rating (0 to 100 scale),[1]; Cpd. No. 20 62 g a.i./ha alone,70
same,Plant response rating (0 to 100 scale),[2]; Cpd. No. 20 16 g a.i./ha alone,48
same,Plant response rating (0 to 100 scale),[2]; Cpd. No. 20 31 g a.i./ha alone,73
same,Plant response rating (0 to 100 scale),[2]; Cpd. No. 20 62 g a.i./ha alone,74
same,Plant response rating (0 to 100 scale),[3]; Cpd. No. 20 16 g a.i./ha alone,55
same,Plant response rating (0 to 100 scale),[3]; Cpd. No. 20 31 g a.i./ha alone,96
same,Plant response rating (0 to 100 scale),[3]; Cpd. No. 20 62 g a.i./ha alone,99
same,Plant response rating (0 to 100 scale),[4]; Cpd. No. 20 16 g a.i./ha alone,0
same,Plant response rating (0 to 100 scale),[4]; Cpd. No. 20 31 g a.i./ha alone,0
same,Plant response rating (0 to 100 scale),[4]; Cpd. No. 20 62 g a.i./ha alone,0
same,Plant response rating (0 to 100 scale),[5]; Cpd. No. 20 16 g a.i./ha alone,66
same,Plant response rating (0 to 100 scale),[5]; Cpd. No. 20 31 g a.i./ha alone,88
same,Plant response rating (0 to 100 scale),[5]; Cpd. No. 20 62 g a.i./ha alone,74
same,Plant response rating (0 to 100 scale),[6]; Cpd. No. 20 16 g a.i./ha alone,9
same,Plant response rating (0 to 100 scale),[6]; Cpd. No. 20 31 g a.i./ha alone,11
same,Plant response rating (0 to 100 scale),[6]; Cpd. No. 20 62 g a.i./ha alone,25
same,Plant response rating (0 to 100 scale),[7]; Cpd. No. 20 16 g a.i./ha alone,0
same,Plant response rating (0 to 100 scale),[7]; Cpd. No. 20 31 g a.i./ha alone,18
same,Plant response rating (0 to 100 scale),[7]; Cpd. No. 20 62 g a.i./ha alone,24
same,Plant response rating (0 to 100 scale) ZEAMD,[8]; Cpd. No. 20 alone 62 g a.i./ha,0
same,Plant response rating (0 to 100 scale) ZEAMD,[8]; [14],17
same,Plant response rating (0 to 100 scale) ZEAMD,[8]; [15],28
same,Plant response rating (0 to 100 scale) ZEAMD,[8]; [16],33
same,Plant response rating (0 to 100 scale) SETFA,[9]; Cpd. No. 20 alone 62 g a.i./ha,96
same,Plant response rating (0 to 100 scale) SETFA,[9]; [14],99
same,Plant response rating (0 to 100 scale) SETFA,[9]; [15],100
same,Plant response rating (0 to 100 scale) SETFA,[9]; [16],100
same,Plant response rating (0 to 100 scale) ORYSS,[10]; Cpd. No. 20 alone 62 g a.i./ha,20
same,Plant response rating (0 to 100 scale) ORYSS,[10]; [14],35
same,Plant response rating (0 to 100 scale) ORYSS,[10]; [15],40
same,Plant response rating (0 to 100 scale) ORYSS,[10]; [16],40
same,Plant response rating (0 to 100 scale) GLXMA,[11]; Cpd. No. 20 alone 62 g a.i./ha,15
same,Plant response rating (0 to 100 scale) GLXMA,[11]; [14],22
same,Plant response rating (0 to 100 scale) GLXMA,[11]; [15],30
same,Plant response rating (0 to 100 scale) GLXMA,[11]; [16],35
same,Plant response rating (0 to 100 scale) HORVW,[12]; Cpd. No. 20 alone 62 g a.i./ha,0
same,Plant response rating (0 to 100 scale) HORVW,[12]; [14],10
same,Plant response rating (0 to 100 scale) HORVW,[12]; [15],15
same,Plant response rating (0 to 100 scale) HORVW,[12]; [16],20
same,Plant response rating (0 to 100 scale) TRZAW,[13]; Cpd. No. 20 alone 62 g a.i./ha,0
same,Plant response rating (0 to 100 scale) TRZAW,[13]; [14],8
same,Plant response rating (0 to 100 scale) TRZAW,[13]; [15],22
same,Plant response rating (0 to 100 scale) TRZAW,[13]; [16],35

# Reference: patent publication US12435044B2, “Pyridazinone herbicides and pyridazinone intermediates used to prepare a herbicide” (FMC Corporation, priority 2018, dated 2025)
